Measurements as given in patent US20160102058A1, “FLUORO-PERHEXILINE COMPOUNDS AND THEIR THERAPEUTIC USE” (THE UNIVERSITY COURT OF THE UNIVERSITY OF ABERDEEN, priority 2013, published 2016).
Like-named read-outs stand apart in the source and are kept apart here.

Key:
[1] = Mouse oral pharmacokinetics, plasma and myocardium; type: in vivo, male BALB/c mice; conditions: for AUC(0-t) / Cmax: male, BALB/c, 10 mg/kg oral gavage
Protocol: (§1) Absorption, distribution and metabolic stability were studied using an in vivo pharmacokinetics assay. Drug levels were assessed using LC/MS-MS.
(§2) Healthy male BALB/c mice (8-12 weeks old) weighing between 25 and 35 g, or Sprague-Dawley rats weighing between 250 and 300 g were procured from In-vivo Bioscience Bangalore, India. Three mice were housed in each cage. Temperature and humidity were maintained at 22±3° C. and 40-70%, respectively and illumination was controlled to give a sequence of 12 h light and 12 h dark cycle. Temperature and humidity were recorded by auto-controlled data logger system. All of the animals were provided laboratory rodent diet (Vetcare India Pvt. Ltd, Bengaluru) after the drug administration. Reverse osmosis water treated with ultraviolet light was provided ad libitum.
FPER-001 and perhexiline samples were freshly prepared each day before administration. The weighed quantity (11.19 mg) of FPER-001 for p.o. dosing was added into a mortar. […] The formulation was sonicated for 2 min to obtain a homogenous suspension. Thirty mice were administered with the oral formulation at 10 mg/kg dose through oral gavage using a 22-G oral feeding needle. The dosing volume administered was 10 mL/kg.
(§3) Blood samples (approximately 60 μL) were collected from retro-orbital plexus of three mice at each time point (1, 4, 8, 24, 48, 72, 96, 120, 144, and 168 h) or of three rats at each time point (0.25, 0.5, 1, 2, 4, 8, 24, 25, 48, 72 and 73 h). Samples were collected into labeled micro-tubes, containing K2EDTA solution (20% K2EDTA solution) as an anticoagulant. Plasma was immediately harvested from the blood by centrifugation at 4000 rpm for 10 min at 4±2° C. and stored below −70° C. until bioanalysis. Immediately after collection of blood, myocardium samples were collected from each mouse at 1, 4, 8, 24, 48, 72, 96, 120, 144 and 168 h, or from each rat at 1, 8, 25 and 73 h. Myocardium samples were homogenized using ice-cold phosphate buffer saline (pH 7.4) and homogenates were stored below −70° C. until analysis. Total homogenate volume was five times the myocardium weight in mice, and three times the myocardium weight in rats.
(§4) The extraction procedures for plasma/myocardium samples and the spiked plasma calibration standards/quality control samples were identical.
(§5) A 25 μL of study sample or spiked calibration standard was added to individual pre-labeled micro-centrifuge tubes followed by 100 μL of internal standard prepared in acetonitrile (Glipizide 500 ng/mL) was added except for the blank, where 100 μL of acetonitrile was added. Samples were vortexed for 5 min. Samples were centrifuged for 10 min at a speed of 4000 rpm at 4° C. Following centrifugation, 100 μL of clear supernatant was transferred in 96-well plates and analysed using LC-MS/MS.
(§6) HPLC and MS conditions were as follows:
(§7) Non-Compartmental-Analysis tool of Phoenix WinNonlin® (Version 6.3) was used to assess the pharmacokinetic parameters. Peak plasma concentrations (Cmax) and time for the peak plasma concentrations (Tmax) were the observed values. The areas under the concentration time curve (AUClast and AUCinf) were calculated by linear trapezoidal rule. The terminal elimination rate constant (ke) was determined by regression analysis of the linear terminal portion of the log plasma concentration-time curve.
The oral absorption, distribution, and stability of FPER-001 and perhexiline were compared in the mouse model as described above. Maximum concentration (Cmax) and area under the curve (AUC) were investigated for both plasma and myocardia in male BALB/c mice, following 10 mg/kg oral gavage of FPER-001 or perhexiline, using an LC/MS/MS detection system as described above.

[2] = Rat oral pharmacokinetics, plasma and myocardium; type: in vivo, male Sprague-Dawley rats; conditions: for concentration at 1 h / concentration at 8 h: male, Sprague-Dawley, 10 mg/kg oral
Protocol: as §1, §2
FPER-001 and perhexiline samples were freshly prepared each day before administration. The weighed quantity (36.5 mg) of FPER-001 for p.o. dosing was added into a mortar. […] The formulation was sonicated for 2 min to obtain a homogenous suspension.
as §3, §4, §5, §6, §7
The oral absorption, distribution, and stability of FPER-001 and perhexiline were compared in the rat model as described above. Concentration was investigated for both plasma and myocardia in male Sprague-Dawley rats using an LC/MS/MS detection system as described above.

CPT-1 = molecular target: T1, CPT-1 (Rattus norvegicus, UniProt Q63704); conditions: rat cardiac mitochondria; cited from earlier work
T1 construct: host or cells: rat cardiac mitochondria
T1 sequence (Q63704 1-772): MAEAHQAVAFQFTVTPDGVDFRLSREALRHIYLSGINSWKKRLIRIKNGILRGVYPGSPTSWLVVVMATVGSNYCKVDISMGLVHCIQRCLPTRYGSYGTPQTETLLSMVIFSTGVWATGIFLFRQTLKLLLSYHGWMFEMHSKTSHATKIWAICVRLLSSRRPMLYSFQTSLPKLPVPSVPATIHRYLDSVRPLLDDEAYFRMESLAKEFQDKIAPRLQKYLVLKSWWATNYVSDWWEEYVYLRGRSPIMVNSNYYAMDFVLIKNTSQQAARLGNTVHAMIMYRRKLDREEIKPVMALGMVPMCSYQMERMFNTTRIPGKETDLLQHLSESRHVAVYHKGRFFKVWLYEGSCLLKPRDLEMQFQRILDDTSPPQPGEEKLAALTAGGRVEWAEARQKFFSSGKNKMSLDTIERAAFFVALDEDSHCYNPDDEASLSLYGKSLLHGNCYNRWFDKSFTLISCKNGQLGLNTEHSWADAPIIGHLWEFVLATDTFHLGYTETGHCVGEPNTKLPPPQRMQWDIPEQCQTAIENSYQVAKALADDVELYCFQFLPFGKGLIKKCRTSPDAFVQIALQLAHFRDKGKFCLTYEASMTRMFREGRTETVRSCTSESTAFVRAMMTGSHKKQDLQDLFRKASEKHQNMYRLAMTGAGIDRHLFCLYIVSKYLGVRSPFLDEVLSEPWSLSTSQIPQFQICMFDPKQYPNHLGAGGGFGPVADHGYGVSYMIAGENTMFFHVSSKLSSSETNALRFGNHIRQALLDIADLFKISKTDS

hepatocytes = conditions: cited from earlier work
[3] = in comparison with nitroglycerin; cited from earlier work
[4] = elderly patients with aortic stenosis unsuitable for valve replacement; cited from earlier work
[5] = cited from earlier work
[6] = myocardium, read-out: AUC 0-24, myocardium
[7] = myocardium, read-out: Cmax, myocardium
[8] = plasma, read-out: AUC 0-24, plasma
[9] = myocardium, 1 h, read-out: Conc., myocardium, 1 h
[10] = myocardium, 8 h, read-out: Conc., myocardium, 8 h
[11] = plasma, 1 h, read-out: Conc., plasma, 1 h
[12] = plasma, 8 h, read-out: Conc., plasma, 8 h

SMILES | AUC(0-t) [1, 6] | Cmax [1, 7] | AUC(0-t) [1, 8] | Cmax ([1]; plasma, read-out: Cmax, plasma) | concentration at 1 h [2, 9] | concentration at 8 h [2, 10] | concentration at 1 h [2, 11] | concentration at 8 h [2, 12] | other results
C1CCC(C(CC2CCCCN2)C2CCCCC2)CC1 (stereo not drawn) [Perhexiline, 2-(2,2-dicyclohexylethyl)piperidine] | 1830 ng·h/mL | 665 ng/mL | 350 ng·h/mL | 116 ng/mL | 1900 ng/mL | 361 ng/mL | 99.9 ng/mL | 31.4 ng/mL | IC50 (CPT-1): 77 µM; inhibition of fatty acid oxidation in hepatocytes (hepatocytes): 22 µM; reduction in the symptoms of angina [3]: greater than 50%; patients with clear symptomatic improvement [4]: 13 out of 15; plasma perhexiline to metabolite ratio, patients without toxicological side-effects ([5]; patients who showed no side-effects): 0.3; plasma perhexiline to metabolite ratio, patients with side-effects ([5]; patients who showed side-effects): 2.8
FC1(F)CCC(C(CC2CCCCN2)C2CCCCC2)CC1 (mixture of isomers) [FPER-001, 2-(2-Cyclohexyl-2-(4,4-difluorocyclohexyl)ethyl)piperidine] | 32400 ng·h/mL | 1680 ng/mL | 3730 ng·h/mL | 347 ng/mL | 5910 ng/mL | 1290 ng/mL | 386 ng/mL | 179 ng/mL | drug exposure versus perhexiline, myocardium ([1]; oral dosing, myocardium): ~18 fold; maximum drug concentration versus perhexiline, myocardium ([1]; oral dosing, myocardium): ~2.5 fold; drug exposure versus perhexiline, plasma ([1]; oral dosing, plasma): ~11 fold; maximum drug concentration versus perhexiline, plasma ([1]; oral dosing, plasma): ~3 fold; drug concentration versus perhexiline, myocardium, 1 h ([2]; oral dosing, myocardium, 1 h): ~3 fold; drug concentration versus perhexiline, myocardium, 8 h ([2]; oral dosing, myocardium, 8 h): ~3.5 fold; drug concentration versus perhexiline, plasma, 1 h ([2]; oral dosing, plasma, 1 h): ~4 fold; drug concentration versus perhexiline, plasma, 8 h ([2]; oral dosing, plasma, 8 h): ~6 fold
